Reference: paper PMC10818749, “Toxicity Studies of Cardiac-Targeting Peptide Reveal a Robust Safety Profile” (Pharmaceutics, 2024)
“Also recorded” adds a separate entry of the source. Ends that are not written are not given here.

Key:
seven ion channels = experiment: Eurofins Ion Channel Cardiac Profiler Panel (all seven channels); type: cell-based, human; settings: CTP 0.1 to 30 µM
B6-wildtype mice = experiment: Blood pressure pre- and post-CTP injection; type: in vivo, mouse; settings: CTP 10 mg/Kg i.v.; 6 h post-injection vs pre-injection; six mice, isoflurane
Method: Blood Pressure Pre- and Post-CTP Injection: Six B6-wildtype mice were obtained from the Jackson Laboratory. Blood pressure was taken using a non-invasive blood pressure system from Kent Scientific. Mice were anesthetized using 2.5% isoflurane exposure for 5 min, placed in a tube holder, and warmed using a warming blanket for approximately 15 min before their tails were fitted with blood pressure cuffs. A total of 21 blood pressure readings were taken, and average systolic and diastolic blood pressure calculated. After baseline blood pressure was established, mice were injected intravenously with 10 mg/Kg of CTP, and blood pressure was measured again 6 h post-injection.

[1] = test system: CD1, wild type, adult mice; experiment: Cardiac MRI pre- and post-CTP injection; type: in vivo, mouse; settings: male or female mice; immediately after CTP 150 µg/Kg i.v.; vs baseline
Method: Cardiac Function Studies, Pre- and Post-Injections: Six CD1, wild type, 6–8-week-old adult mice were obtained from the Charles River and used for cardiac MRI studies. Mice were weighed, anesthetized with 2.5% isoflurane, and ear tags removed before being inserted into the MRI scanner. A baseline cardiac MRI was performed, followed by intravenous CTP injection (150 µg/Kg). Post-injection, a second cardiac MRI was performed.

CHO-hERG = CHO-hERG (Homo sapiens, UniProt Q12809)
Sequence of CHO-hERG (Q12809 whole entry): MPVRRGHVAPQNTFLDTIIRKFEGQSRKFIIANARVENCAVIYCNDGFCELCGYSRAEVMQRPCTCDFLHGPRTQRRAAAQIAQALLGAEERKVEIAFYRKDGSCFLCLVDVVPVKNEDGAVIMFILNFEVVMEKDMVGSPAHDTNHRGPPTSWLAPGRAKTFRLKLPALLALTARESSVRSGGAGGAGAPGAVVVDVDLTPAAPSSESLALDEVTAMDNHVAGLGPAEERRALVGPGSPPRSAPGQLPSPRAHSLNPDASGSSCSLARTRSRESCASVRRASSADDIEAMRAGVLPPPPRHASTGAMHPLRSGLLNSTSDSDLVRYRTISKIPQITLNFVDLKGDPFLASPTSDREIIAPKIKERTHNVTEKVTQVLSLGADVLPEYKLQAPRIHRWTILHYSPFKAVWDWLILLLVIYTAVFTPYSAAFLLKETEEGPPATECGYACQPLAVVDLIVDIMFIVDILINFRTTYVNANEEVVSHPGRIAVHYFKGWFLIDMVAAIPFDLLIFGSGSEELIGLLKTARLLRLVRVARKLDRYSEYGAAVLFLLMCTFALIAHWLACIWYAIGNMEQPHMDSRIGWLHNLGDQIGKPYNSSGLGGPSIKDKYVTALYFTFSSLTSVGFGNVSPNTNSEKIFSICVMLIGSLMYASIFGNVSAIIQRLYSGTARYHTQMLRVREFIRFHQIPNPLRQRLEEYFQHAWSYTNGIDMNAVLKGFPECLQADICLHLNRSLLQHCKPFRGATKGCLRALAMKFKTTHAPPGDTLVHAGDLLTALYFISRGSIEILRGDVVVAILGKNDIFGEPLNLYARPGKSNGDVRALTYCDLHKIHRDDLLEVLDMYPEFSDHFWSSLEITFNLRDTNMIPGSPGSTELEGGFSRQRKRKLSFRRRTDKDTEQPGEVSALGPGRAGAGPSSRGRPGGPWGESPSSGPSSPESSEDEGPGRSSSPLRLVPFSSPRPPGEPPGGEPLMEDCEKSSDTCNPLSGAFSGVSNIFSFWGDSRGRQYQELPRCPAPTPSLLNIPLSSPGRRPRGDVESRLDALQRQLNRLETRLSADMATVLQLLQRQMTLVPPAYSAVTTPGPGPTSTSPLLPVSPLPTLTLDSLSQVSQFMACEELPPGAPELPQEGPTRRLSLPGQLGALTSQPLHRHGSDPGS

[2] = test system: seventy-eight protein channels; experiment: Eurofins SAFETYscan E/IC50 ELECT (all seventy-eight assays); settings: CTP 0.1 µM to 30 µM
Method: Eurofins Toxicology Study: In vitro toxicology studies were performed by Eurofins Scientific through both their Ion Channel Profiler and Cardiac Profiler Panel and their DiscoverX’s SAFETYscan E/IC50 […] service. Increasing concentrations of CTP (0.1 µM to 30 µM) were tested against various ion channels and a total of seventy-eight assays performed utilizing various output reads, including GPCR cAMP modulation assays, calcium mobilization assays, nuclear hormone receptor assays, KINOMEscan binding assays, ion channel assays, transporter assays, and enzymatic assays. All methods described below were performed, described, and reported by Eurofins Scientific in their study report (Supplementary Methods S1 and S2).
GPCR cAMP modulation assays, calcium mobilization assays, nuclear hormone receptor assays, KINOMEscan binding assays, ion channel assays, transporter assays, and enzymatic assays were performed by Eurofins under GLP standards.
DiscoverX was contracted by Maliha Zahid at Mayo Clinic to profile 1 compound(s) with the SAFETYscan E/IC50 ELECT service. Details are
Product: SAFETYscan E/IC50 ELECT
ADOR A2A- Calci um Flux-Agonist DRD2S-cAMP-Agonist HTR3A-Ion Channel-Blocker
ADORA2A-Calcium Flux-Antagonist DRD2S-cAMP-Antagonist HTR3A-Ion Channel-Opener
ADRA1A-Calcium Flux-Agonist EDNRA-Calcium Flux-Agonist KvLQT1/minK-Ion Channel-Blocker […]

HEK-Kv4.3/KChIP2 = HEK-Kv4.3/KChIP2 (Homo sapiens, UniProt Q9NS61+Q9UK17); settings: CTP 0.1 to 30 µM; HEK cells; step to 40mV; 0.1% Pluronic F-68
Sequence of HEK-Kv4.3/KChIP2 (Q9UK17 whole entry): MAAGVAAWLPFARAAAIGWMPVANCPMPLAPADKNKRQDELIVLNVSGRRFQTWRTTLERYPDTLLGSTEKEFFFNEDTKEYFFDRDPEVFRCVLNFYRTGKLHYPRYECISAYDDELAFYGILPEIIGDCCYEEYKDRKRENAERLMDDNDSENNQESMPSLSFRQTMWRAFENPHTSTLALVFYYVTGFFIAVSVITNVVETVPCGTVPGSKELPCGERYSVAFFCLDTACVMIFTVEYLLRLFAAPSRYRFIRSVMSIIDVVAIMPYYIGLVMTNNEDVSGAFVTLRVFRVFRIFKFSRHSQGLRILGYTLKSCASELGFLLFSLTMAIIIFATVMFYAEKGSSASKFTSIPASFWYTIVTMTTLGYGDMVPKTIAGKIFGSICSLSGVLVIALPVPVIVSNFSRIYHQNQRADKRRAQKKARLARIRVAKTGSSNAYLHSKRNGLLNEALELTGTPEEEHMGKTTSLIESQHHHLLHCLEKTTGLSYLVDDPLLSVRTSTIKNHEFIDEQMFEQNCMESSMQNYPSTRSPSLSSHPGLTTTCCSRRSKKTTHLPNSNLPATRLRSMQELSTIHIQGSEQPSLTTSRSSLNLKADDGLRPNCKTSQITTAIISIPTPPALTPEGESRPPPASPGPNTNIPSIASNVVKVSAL
Sequence of HEK-Kv4.3/KChIP2 (Q9NS61 whole entry partner): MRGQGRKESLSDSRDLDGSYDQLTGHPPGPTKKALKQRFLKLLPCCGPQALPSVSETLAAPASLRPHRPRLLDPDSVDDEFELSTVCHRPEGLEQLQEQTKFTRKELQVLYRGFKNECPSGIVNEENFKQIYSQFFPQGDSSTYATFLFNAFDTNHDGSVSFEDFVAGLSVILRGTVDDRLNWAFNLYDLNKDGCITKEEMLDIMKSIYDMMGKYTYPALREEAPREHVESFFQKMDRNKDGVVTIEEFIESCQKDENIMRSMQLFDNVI

[3] = target: T1, HEK-Nav1.5 (Late, Antagonist) (Homo sapiens, UniProt Q14524); type: cell-based; settings: CTP 0.1 to 30 µM; HEK cells; late current, ramp with 50nM ATXII; antagonist; 0.1% Pluronic F-68
T1 construct: CYL7004QB2DR (late); host or cells: HEK
T1 sequence (Q14524 whole entry): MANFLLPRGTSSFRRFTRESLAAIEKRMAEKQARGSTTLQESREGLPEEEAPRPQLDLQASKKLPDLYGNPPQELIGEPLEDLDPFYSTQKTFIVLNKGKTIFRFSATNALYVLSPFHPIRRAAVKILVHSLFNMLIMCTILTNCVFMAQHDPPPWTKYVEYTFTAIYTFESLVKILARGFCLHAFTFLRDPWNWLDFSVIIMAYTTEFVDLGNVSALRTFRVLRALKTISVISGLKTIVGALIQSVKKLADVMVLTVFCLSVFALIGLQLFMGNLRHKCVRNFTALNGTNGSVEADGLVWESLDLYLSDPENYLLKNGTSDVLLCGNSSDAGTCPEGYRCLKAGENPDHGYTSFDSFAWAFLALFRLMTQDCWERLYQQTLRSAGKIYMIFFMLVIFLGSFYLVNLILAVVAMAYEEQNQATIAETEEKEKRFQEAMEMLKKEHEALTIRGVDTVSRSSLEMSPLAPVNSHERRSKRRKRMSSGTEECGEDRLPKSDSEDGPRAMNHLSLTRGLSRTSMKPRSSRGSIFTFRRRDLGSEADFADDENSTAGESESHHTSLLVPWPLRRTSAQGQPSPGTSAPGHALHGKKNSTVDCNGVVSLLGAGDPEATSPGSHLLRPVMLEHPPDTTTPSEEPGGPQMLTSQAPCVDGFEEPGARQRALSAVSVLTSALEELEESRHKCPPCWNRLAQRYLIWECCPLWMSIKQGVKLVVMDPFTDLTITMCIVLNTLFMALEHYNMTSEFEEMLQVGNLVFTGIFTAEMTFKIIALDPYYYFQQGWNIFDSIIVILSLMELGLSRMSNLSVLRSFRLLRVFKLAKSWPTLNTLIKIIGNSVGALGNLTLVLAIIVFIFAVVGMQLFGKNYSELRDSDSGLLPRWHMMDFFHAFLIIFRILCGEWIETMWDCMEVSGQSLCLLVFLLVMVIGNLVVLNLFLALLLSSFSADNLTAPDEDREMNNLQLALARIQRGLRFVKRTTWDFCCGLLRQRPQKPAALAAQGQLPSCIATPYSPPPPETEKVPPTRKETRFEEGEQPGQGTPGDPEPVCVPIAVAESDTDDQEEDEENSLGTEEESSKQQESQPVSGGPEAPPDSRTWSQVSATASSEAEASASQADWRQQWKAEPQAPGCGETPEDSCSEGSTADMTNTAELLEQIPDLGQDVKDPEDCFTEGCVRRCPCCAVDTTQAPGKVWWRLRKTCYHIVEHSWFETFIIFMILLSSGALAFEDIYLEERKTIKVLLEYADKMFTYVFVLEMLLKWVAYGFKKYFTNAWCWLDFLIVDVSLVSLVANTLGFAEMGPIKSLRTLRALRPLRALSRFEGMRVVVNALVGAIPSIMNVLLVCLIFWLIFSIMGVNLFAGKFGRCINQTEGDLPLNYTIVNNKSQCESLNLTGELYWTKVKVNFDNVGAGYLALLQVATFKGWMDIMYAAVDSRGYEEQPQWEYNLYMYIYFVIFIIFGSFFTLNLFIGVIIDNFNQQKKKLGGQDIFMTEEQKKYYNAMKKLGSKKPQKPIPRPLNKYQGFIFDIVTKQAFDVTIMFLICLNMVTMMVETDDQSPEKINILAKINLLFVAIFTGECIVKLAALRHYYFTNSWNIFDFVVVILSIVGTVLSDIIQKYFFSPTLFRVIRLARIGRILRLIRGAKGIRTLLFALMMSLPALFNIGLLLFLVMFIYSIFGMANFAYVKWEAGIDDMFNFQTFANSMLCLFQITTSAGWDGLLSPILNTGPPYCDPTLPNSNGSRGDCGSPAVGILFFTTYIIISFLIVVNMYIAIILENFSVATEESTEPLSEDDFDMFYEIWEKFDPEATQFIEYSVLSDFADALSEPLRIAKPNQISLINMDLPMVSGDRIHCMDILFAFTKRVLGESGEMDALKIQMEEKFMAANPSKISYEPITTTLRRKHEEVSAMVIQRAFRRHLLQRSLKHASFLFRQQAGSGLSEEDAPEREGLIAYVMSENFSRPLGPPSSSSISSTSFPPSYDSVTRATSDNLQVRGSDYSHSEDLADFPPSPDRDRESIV

Q: What does the source list for APWHLSSQYSRT [CTP]?
A: IC50 values (seven ion channels; seven ion channels): not calculable; inhibition/activation across all seven ion channels (seven ion channels; vs control substances): no inhibition/activation was observed; also recorded: did not inhibit the activation of any tested; diastolic blood pressure (B6-wildtype mice): No significant difference; also recorded: no significant (ns) change; systolic blood pressure (B6-wildtype mice): No significant difference; also recorded: no significant (ns) change; cardiac output [1]: no significant change; ejection fraction [1]: no significant change; heart rate [1]: no significant change; left ventricular mass [1]: no significant change; Estimated IC50 (CHO-hERG): N/C (key: N/C: Not calculable, inhibition >25% was not observed.); significant interactions across all seventy-eight assays [2]: No significant activation or inhibition of any of seventy-eight protein channels was observed other than OPRM1 and COX2 at the highest tested concentration; also recorded: only two showed significant interactions; Estimated IC50 (HEK-Kv4.3/KChIP2): N/C (Not calculable, inhibition >25% was not observed.); Estimated IC50 [3]: N/C (Not calculable, inhibition >25% was not observed.)
